Key:
[1] = target: 3',5'-cyclic-AMP phosphodiesterase 4D (Homo sapiens, UniProt Q08499); assay: Inhibition of human PDE4D2 catalytic domain (86 to 413) expressed in Escherichia coli BL21 using [3H]-cAMP/[3H]-cGMP after 15 mins by liquid scintillation counting
[2] = target: cGMP-specific 3',5'-cyclic phosphodiesterase (Homo sapiens, UniProt O76074); assay: Inhibition of human PDE5A1 catalytic domain (535 to 860) expressed in Escherichia coli BL21 using [3H]-cAMP/[3H]-cGMP after 15 mins by liquid scintillation counting
[3] = target: High affinity cGMP-specific 3',5'-cyclic phosphodiesterase 9A (Homo sapiens, UniProt O76083); assay: Inhibition of human PDE9A2 catalytic domain (181 to 506) expressed in Escherichia coli BL21 using [3H]-cAMP/[3H]-cGMP after 15 mins by liquid scintillation counting
Chain of High affinity cGMP-specific 3',5'-cyclic phosphodiesterase 9A (O76083 whole entry, the tested form may be a part): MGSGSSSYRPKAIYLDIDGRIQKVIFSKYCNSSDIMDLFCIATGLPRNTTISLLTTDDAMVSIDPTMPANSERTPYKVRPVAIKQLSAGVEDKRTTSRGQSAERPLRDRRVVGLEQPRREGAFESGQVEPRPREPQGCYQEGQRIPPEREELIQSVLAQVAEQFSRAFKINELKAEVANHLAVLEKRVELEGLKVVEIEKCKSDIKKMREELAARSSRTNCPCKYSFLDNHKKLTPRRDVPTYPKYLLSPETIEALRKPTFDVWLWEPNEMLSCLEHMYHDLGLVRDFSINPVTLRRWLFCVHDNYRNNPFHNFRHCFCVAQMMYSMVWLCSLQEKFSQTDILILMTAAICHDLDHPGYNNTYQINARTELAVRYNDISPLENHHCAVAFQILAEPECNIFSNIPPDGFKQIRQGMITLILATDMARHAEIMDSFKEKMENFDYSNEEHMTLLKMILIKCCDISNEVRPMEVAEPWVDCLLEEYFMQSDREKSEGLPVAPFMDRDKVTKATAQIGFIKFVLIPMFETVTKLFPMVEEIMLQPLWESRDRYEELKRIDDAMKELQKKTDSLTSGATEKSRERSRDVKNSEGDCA

[4] = target: 3',5'-cyclic-AMP phosphodiesterase 4B (Homo sapiens, UniProt Q07343); assay: Inhibition of human PDE4B2 catalytic domain and UCR2 (92 to 521) expressed in Escherichia coli BL21 using [3H]-cAMP/[3H]-cGMP after 15 mins by liquid scintillation counting
Chain of 3',5'-cyclic-AMP phosphodiesterase 4B (Q07343 whole entry, the tested form may be a part): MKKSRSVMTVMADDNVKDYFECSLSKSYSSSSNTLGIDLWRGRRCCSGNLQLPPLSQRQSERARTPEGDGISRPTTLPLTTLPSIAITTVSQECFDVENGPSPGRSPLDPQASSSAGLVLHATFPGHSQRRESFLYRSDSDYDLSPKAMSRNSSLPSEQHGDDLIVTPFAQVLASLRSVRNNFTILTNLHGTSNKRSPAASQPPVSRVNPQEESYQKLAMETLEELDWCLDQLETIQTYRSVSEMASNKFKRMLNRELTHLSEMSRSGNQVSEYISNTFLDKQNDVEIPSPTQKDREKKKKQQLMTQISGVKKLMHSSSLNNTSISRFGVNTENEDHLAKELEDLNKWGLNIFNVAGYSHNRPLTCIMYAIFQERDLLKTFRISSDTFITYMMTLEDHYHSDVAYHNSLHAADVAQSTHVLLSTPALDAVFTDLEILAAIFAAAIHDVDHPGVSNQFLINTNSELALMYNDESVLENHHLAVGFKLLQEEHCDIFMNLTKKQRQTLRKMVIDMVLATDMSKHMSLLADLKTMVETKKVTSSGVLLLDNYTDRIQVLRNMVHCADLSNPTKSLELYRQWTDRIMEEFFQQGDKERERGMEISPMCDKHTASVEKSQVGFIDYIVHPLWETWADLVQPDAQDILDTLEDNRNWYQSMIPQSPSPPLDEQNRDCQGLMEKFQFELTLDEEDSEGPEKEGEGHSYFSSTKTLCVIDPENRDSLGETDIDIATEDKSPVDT

Chain of 3',5'-cyclic-AMP phosphodiesterase 4D (Q08499 whole entry, the tested form may be a part): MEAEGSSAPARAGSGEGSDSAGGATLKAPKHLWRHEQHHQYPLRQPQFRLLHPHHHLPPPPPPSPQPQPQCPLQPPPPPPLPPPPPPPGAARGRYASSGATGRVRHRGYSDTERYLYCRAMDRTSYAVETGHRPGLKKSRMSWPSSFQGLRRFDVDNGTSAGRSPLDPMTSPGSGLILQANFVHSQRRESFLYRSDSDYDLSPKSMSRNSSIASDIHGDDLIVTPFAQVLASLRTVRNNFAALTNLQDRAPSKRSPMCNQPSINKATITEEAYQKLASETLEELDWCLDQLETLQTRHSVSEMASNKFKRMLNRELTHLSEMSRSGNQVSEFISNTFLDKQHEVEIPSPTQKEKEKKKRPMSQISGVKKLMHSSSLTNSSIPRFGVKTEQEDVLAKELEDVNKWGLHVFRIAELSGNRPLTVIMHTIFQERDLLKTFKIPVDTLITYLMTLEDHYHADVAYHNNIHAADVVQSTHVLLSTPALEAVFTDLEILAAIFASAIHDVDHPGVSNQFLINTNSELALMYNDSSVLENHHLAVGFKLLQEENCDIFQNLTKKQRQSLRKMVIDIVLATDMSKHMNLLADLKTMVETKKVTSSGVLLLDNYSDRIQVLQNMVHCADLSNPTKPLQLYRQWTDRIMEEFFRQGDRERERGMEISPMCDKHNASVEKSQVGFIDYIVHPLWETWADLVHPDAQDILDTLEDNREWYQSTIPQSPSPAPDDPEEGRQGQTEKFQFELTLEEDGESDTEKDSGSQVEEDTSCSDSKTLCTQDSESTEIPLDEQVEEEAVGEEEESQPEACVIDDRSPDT

IC50 [1] [µM] | IC50 [2] [µM] | IC50 [3] [µM] | IC50 [4] [µM] | SMILES
26 | > 50 | > 100 | 18.1 | CC(C)=CCc1c(O)cc(-c2cc3ccc(O)cc3o2)cc1O [MORACIN C]
 | > 40 | > 100 | 4.5 | Oc1cc(O)cc(-c2cc3ccc(O)cc3o2)c1 [MORACIN M]

Reference: ChEMBL document CHEMBL2016435 (Bioorg Med Chem Lett, 2012)
